In US20250163104A1, “MACROCYCLIC IMMUNOMODULATORS” (priority 2021, published 2025):
Where a SMILES comes first, the peptide text is derived from it. Bridges are numbered along the chain shown (N, C = ends). [ ]: non-standard residue; d: D form. The star is where a group is joined. Phe(3-CF3) = N[C@@H](Cc1cccc(C(F)(F)F)c1)C(=O)O; Phe(4-COOH) = N[C@@H](Cc1ccc(C(=O)O)cc1)C(=O)O; Bip = N[C@@H](Cc1ccc(-c2ccccc2)cc1)C(=O)O; Phe(3-Me) = Cc1cccc(C[C@H](N)C(=O)O)c1; 3Pal = N[C@@H](Cc1cccnc1)C(=O)O; 4Pal = N[C@@H](Cc1ccncc1)C(=O)O; Cha = N[C@@H](CC1CCCCC1)C(=O)O; Cit = NC(=O)NCCC[C@H](N)C(=O)O; Carboxymethyl = O=C(O)C*; Orn = NCCC[C@H](N)C(=O)O; Dab = NCC[C@H](N)C(=O)O; Dap = NC[C@H](N)C(=O)O

What follows are compounds tested against T1, human PD-1 / PD-L1-Ig binding on Jurkat cell line over-expressing human PD-1 (Jurkat-PD-1) (Homo sapiens, UniProt Q15116) (assay: Jurkat-PD-1 Cell Binding High-Content Screening Assay (CBA)). Conditions: Jurkat HPD1_PDL1 IC50, Jurkat-PD-1 cells, PE-labeled PD-L1-Ig 20 nM final.
T1 construct: expressed in transfected cells; host or cells: Jurkat
Type: cell-based
How it was run: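 PE-PD-L1-Ig 20 nM final; cells in DMEM/10% FCS; cpd pre-incubation 2 h, 37° C; ligand 1 h; PFA fix + Hoechst 33342; high-content imaging read-out.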

T1 sequence (Q15116 25-288): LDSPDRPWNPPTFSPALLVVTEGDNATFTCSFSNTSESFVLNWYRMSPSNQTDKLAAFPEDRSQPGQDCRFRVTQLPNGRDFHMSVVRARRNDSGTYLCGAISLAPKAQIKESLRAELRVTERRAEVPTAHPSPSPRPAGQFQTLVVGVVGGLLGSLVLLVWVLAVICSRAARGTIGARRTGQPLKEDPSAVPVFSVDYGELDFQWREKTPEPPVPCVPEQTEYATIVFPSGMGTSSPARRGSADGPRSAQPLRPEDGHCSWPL

Point of comparison: `CC[C@H](C)[C@@H]1NC(=O)[C@H](Cc2ccc(-c3ccccc3)cc2)NC(=O)[C@H](C(C)C)NC(=O)[C@H](Cc2cccc(Cl)c2)NC(=O)[C@H](CC(=O)O)NC(=O)[C@H](Cc2ccc(C(=O)O)cc2)NC(=O)[C@H](Cc2ccncc2)NC(=O)CSC[C@@H](C(=O)N[C@@H](C)C(N)=O)NC(=O)[C@H]([C@@H](C)O)NC(=O)[C@H](C(C)C)NC(=O)[C@H](CC2CCCCC2)NC(=O)[C@H](CCN)NC(=O)[C@@H](CC(C)C)NC(=O)[C@H](CCCN)NC1=O` [Compound 1558], IC50 15.8 nM. Against it:
- CC[C@H](C)[C@@H]1NC(=O)[C@H](Cc2ccc(-c3ccccc3)cc2)NC(=O)[C@H](C(C)C)NC(=O)[C@H](Cc2cccc(C(F)(F)F)c2)NC(=O)[C@H](CC(=O)O)NC(=O)[C@H](Cc2ccc(OCC(=O)O)cc2)NC(=O)[C@H](Cc2ccncc2)NC(=O)CSC[C@@H](C(=O)N[C@@H](C)C(N)=O)NC(=O)[C@H]([C@@H](C)O)NC(=O)[C@H](C(C)C)NC(=O)[C@H](CC2CCCCC2)NC(=O)[C@H](CCN)NC(=O)[C@@H](CC(C)C)NC(=O)[C@H](CCCN)NC1=O [Compound 1567] — 1.6-fold higher, 25.8 nM

Same assay, conditions: Jurkat-PD-1 cells, PE-labeled PD-L1-Ig 20 nM final; read-out: Jurkat HPD1_PDL1 IC50

Point of comparison: `CC[C@H](C)[C@@H]1NC(=O)[C@H](Cc2ccc(-c3ccccc3)cc2)NC(=O)[C@H](C(C)C)NC(=O)[C@H](Cc2cccc(OC)c2)NC(=O)[C@H](CC(=O)O)NC(=O)[C@H](Cc2ccncc2)NC(=O)[C@H](CN)NC(=O)CSC[C@@H](C(=O)N[C@@H](C)C(N)=O)NC(=O)[C@H]([C@@H](C)O)NC(=O)[C@H](C(C)C)NC(=O)[C@H](CC2CCCCC2)NC(=O)[C@H](CCN)NC(=O)[C@@H](CC(C)C)NC(=O)[C@H](CCCN)NC1=O` [Compound 1563], IC50 10.7 nM. Against it:
- Cc1cccc(C[C@@H]2NC(=O)[C@H](CC(=O)O)NC(=O)[C@H](Cc3ccc(C(=O)O)cc3)NC(=O)[C@H](Cc3ccncc3)NC(=O)CSC[C@@H](C(N)=O)NC(=O)[C@H]([C@@H](C)O)NC(=O)[C@H](C(C)C)NC(=O)[C@H](CC3CCCCC3)NC(=O)[C@H](CCN)NC(=O)[C@@H](CC(C)C)NC(=O)[C@H](CCCN)NC(=O)[C@H](C(C)C)NC(=O)[C@H](Cc3ccc(-c4ccccc4)cc3)NC(=O)[C@H](C(C)C)NC2=O)c1 [Compound 1548] ({CH2CO}-[4Pal][Phe(4-COOH)]D[Phe(3-Me)]V[Bip]V[Orn][dL][Dab][Cha]VTC-NH2; thioether N-14) — 1.7-fold higher, 18.4 nM
- Cc1cccc(C[C@@H]2NC(=O)[C@H](CC(=O)O)NC(=O)[C@H](Cc3ccc(C(=O)O)cc3)NC(=O)[C@H](Cc3ccncc3)NC(=O)CSC[C@@H](C(N)=O)NC(=O)[C@H]([C@@H](C)O)NC(=O)[C@H](C(C)C)NC(=O)[C@H](CC3CCCCC3)NC(=O)[C@H](CCN)NC(=O)[C@@H](CC(C)C)NC(=O)[C@H](CCCN)NC(=O)[C@H](CCCNC(N)=O)NC(=O)[C@H](Cc3ccc(-c4ccccc4)cc3)NC(=O)[C@H](C(C)C)NC2=O)c1 [Compound 1549] ({CH2CO}-[4Pal][Phe(4-COOH)]D[Phe(3-Me)]V[Bip][Cit][Orn][dL][Dab][Cha]VTC-NH2; thioether N-14) — within 1.5-fold, 10.9 nM
- Cc1cccc(C[C@@H]2NC(=O)[C@H](CC(=O)O)NC(=O)[C@H](Cc3ccncc3)NC(=O)[C@H](CN)NC(=O)CSC[C@@H](C(N)=O)NC(=O)[C@H]([C@@H](C)O)NC(=O)[C@H](C(C)C)NC(=O)[C@H](CC(C)C)NC(=O)[C@H](CCN)NC(=O)[C@@H](CC(C)C)NC(=O)[C@H](CCCN)NC(=O)[C@H](C(C)C)NC(=O)[C@H](Cc3ccc(-c4ccccc4)cc3)NC(=O)[C@H](C(C)C)NC2=O)c1 [Compound 1550] ({CH2CO}-[Dap][4Pal]D[Phe(3-Me)]V[Bip]V[Orn][dL][Dab]LVTC-NH2; thioether N-14) — 8.8-fold higher, 94.5 nM
- Cc1cccc(C[C@@H]2NC(=O)[C@H](CC(=O)O)NC(=O)[C@H](Cc3ccc(C(=O)O)cc3)NC(=O)[C@H](Cc3ccc(OCC(=O)O)cc3)NC(=O)CSC[C@@H](C(N)=O)NC(=O)[C@H]([C@@H](C)O)NC(=O)[C@H](C(C)C)NC(=O)[C@H](CC(C)C)NC(=O)[C@H](CCN)NC(=O)[C@@H](CC(C)C)NC(=O)[C@H](CCCN)NC(=O)[C@H](C(C)C)NC(=O)[C@H](Cc3ccc(-c4ccccc4)cc3)NC(=O)[C@H](C(C)C)NC2=O)c1 [Compound 1551] ({CH2CO}-Y(Carboxymethyl)[Phe(4-COOH)]D[Phe(3-Me)]V[Bip]V[Orn][dL][Dab]LVTC-NH2; thioether N-14) — within 1.5-fold, 15.6 nM
- Cc1cccc(C[C@@H]2NC(=O)[C@H](CC(=O)O)NC(=O)[C@H](Cc3ccc(C(=O)O)cc3)NC(=O)[C@H](Cc3ccncc3)NC(=O)CSC[C@@H](C(N)=O)NC(=O)[C@H]([C@@H](C)O)NC(=O)[C@H](C(C)C)NC(=O)[C@H](CC3CCCCC3)NC(=O)[C@H](CCN)NC(=O)[C@@H](CC(C)C)NC(=O)[C@H](CCCN)NC(=O)[C@H](CCC(=O)O)NC(=O)[C@H](Cc3ccc(-c4ccccc4)cc3)NC(=O)[C@H](C(C)C)NC2=O)c1 [Compound 1552] ({CH2CO}-[4Pal][Phe(4-COOH)]D[Phe(3-Me)]V[Bip]E[Orn][dL][Dab][Cha]VTC-NH2; thioether N-14) — 2-fold higher, 21.8 nM
- Cc1cccc(C[C@@H]2NC(=O)[C@H](CC(=O)O)NC(=O)[C@H](Cc3ccc(OCC(=O)O)cc3)NC(=O)[C@H](Cc3cccnc3)NC(=O)CSC[C@@H](C(N)=O)NC(=O)[C@H]([C@@H](C)O)NC(=O)[C@H](C(C)C)NC(=O)[C@H](CC(C)C)NC(=O)[C@H](CCN)NC(=O)[C@@H](CC(C)C)NC(=O)[C@H](CCCN)NC(=O)[C@H](C(C)C)NC(=O)[C@H](Cc3ccc(-c4ccccc4)cc3)NC(=O)[C@H](C(C)C)NC2=O)c1 [Compound 1553] ({CH2CO}-[3Pal]Y(Carboxymethyl)D[Phe(3-Me)]V[Bip]V[Orn][dL][Dab]LVTC-NH2; thioether N-14) — 2.5-fold higher, 26.9 nM
- CC[C@H](C)[C@@H]1NC(=O)[C@H](Cc2ccc(-c3ccccc3)cc2)NC(=O)[C@H](C(C)C)NC(=O)[C@H](Cc2cccc(C)c2)NC(=O)[C@H](CC(=O)O)NC(=O)[C@H](Cc2ccncc2)NC(=O)[C@H](CN)NC(=O)CSC[C@@H](C(N)=O)NC(=O)[C@H]([C@@H](C)O)NC(=O)[C@H](C(C)C)NC(=O)[C@H](CC(C)C)NC(=O)[C@H](CCN)NC(=O)[C@@H](CC(C)C)NC(=O)[C@H](CCCN)NC1=O [Compound 1554] ({CH2CO}-[Dap][4Pal]D[Phe(3-Me)]V[Bip]I[Orn][dL][Dab]LVTC-NH2; thioether N-14) — 9-fold higher, 96.2 nM
- CC[C@H](C)[C@@H]1NC(=O)[C@H](Cc2ccc(-c3ccccc3)cc2)NC(=O)[C@H](C(C)C)NC(=O)[C@H](Cc2cccc(C)c2)NC(=O)[C@H](CC(=O)O)NC(=O)[C@H](Cc2ccc(C(=O)O)cc2)NC(=O)[C@H](Cc2ccc(OCC(=O)O)cc2)NC(=O)CSC[C@@H](C(N)=O)NC(=O)[C@H]([C@@H](C)O)NC(=O)[C@H](C(C)C)NC(=O)[C@H](CC(C)C)NC(=O)[C@H](CCN)NC(=O)[C@@H](CC(C)C)NC(=O)[C@H](CCCN)NC1=O [Compound 1555] ({CH2CO}-Y(Carboxymethyl)[Phe(4-COOH)]D[Phe(3-Me)]V[Bip]I[Orn][dL][Dab]LVTC-NH2; thioether N-14) — 4-fold higher, 43.3 nM
- Cc1cccc(C[C@@H]2NC(=O)[C@H](CC(=O)O)NC(=O)[C@H](Cc3ccc(C(=O)O)cc3)NC(=O)[C@H](Cc3ccc(OCC(=O)O)cc3)NC(=O)CSC[C@@H](C(N)=O)NC(=O)[C@H]([C@@H](C)O)NC(=O)[C@H](C(C)C)NC(=O)[C@H](CC(C)C)NC(=O)[C@H](CCN)NC(=O)[C@@H](CC(C)C)NC(=O)[C@H](CCCN)NC(=O)[C@H](CCC(=O)O)NC(=O)[C@H](Cc3ccc(-c4ccccc4)cc3)NC(=O)[C@H](C(C)C)NC2=O)c1 [Compound 1556] ({CH2CO}-Y(Carboxymethyl)[Phe(4-COOH)]D[Phe(3-Me)]V[Bip]E[Orn][dL][Dab]LVTC-NH2; thioether N-14) — 8.5-fold higher, 90.9 nM
- Cc1cccc(C[C@@H]2NC(=O)[C@H](CC(=O)O)NC(=O)[C@H](Cc3ccc(C(=O)O)cc3)NC(=O)[C@H](Cc3ccc(OCC(=O)O)cc3)NC(=O)CSC[C@@H](C(N)=O)NC(=O)[C@H]([C@@H](C)O)NC(=O)[C@H](C(C)C)NC(=O)[C@H](CC(C)C)NC(=O)[C@H](CCN)NC(=O)[C@@H](CC(C)C)NC(=O)[C@H](CCCN)NC(=O)[C@H](CCCNC(N)=O)NC(=O)[C@H](Cc3ccc(-c4ccccc4)cc3)NC(=O)[C@H](C(C)C)NC2=O)c1 [Compound 1557] ({CH2CO}-Y(Carboxymethyl)[Phe(4-COOH)]D[Phe(3-Me)]V[Bip][Cit][Orn][dL][Dab]LVTC-NH2; thioether N-14) — 3.5-fold higher, 37.9 nM
- CC[C@H](C)[C@@H]1NC(=O)[C@H](Cc2ccc(-c3ccccc3)cc2)NC(=O)[C@H](C(C)C)NC(=O)[C@H](Cc2cccc(C)c2)NC(=O)[C@H](CC(=O)O)NC(=O)[C@H](Cc2ccncc2)NC(=O)[C@H](CN)NC(=O)CSC[C@@H](C(=O)N[C@@H](C)C(N)=O)NC(=O)[C@H]([C@@H](C)O)NC(=O)[C@H](C(C)C)NC(=O)[C@H](CC2CCCCC2)NC(=O)[C@H](CCN)NC(=O)[C@@H](CC(C)C)NC(=O)[C@H](CCCN)NC1=O [Compound 1561] — 1.5-fold higher, 16.2 nM
- CC[C@H](C)[C@@H]1NC(=O)[C@H](Cc2ccc(-c3ccccc3)cc2)NC(=O)[C@H](C(C)C)NC(=O)[C@H](Cc2cccc(Cl)c2)NC(=O)[C@H](CC(=O)O)NC(=O)[C@H](Cc2ccncc2)NC(=O)[C@H](CN)NC(=O)CSC[C@@H](C(=O)N[C@@H](C)C(N)=O)NC(=O)[C@H]([C@@H](C)O)NC(=O)[C@H](C(C)C)NC(=O)[C@H](CC2CCCCC2)NC(=O)[C@H](CCN)NC(=O)[C@@H](CC(C)C)NC(=O)[C@H](CCCN)NC1=O [Compound 1562] — 1.9-fold higher, 20.2 nM
- CC[C@H](C)[C@@H]1NC(=O)[C@H](Cc2ccc(-c3ccccc3)cc2)NC(=O)[C@H](C(C)C)NC(=O)[C@H](Cc2cccc(C(F)(F)F)c2)NC(=O)[C@H](CC(=O)O)NC(=O)[C@H](Cc2ccncc2)NC(=O)[C@H](CN)NC(=O)CSC[C@@H](C(=O)N[C@@H](C)C(N)=O)NC(=O)[C@H]([C@@H](C)O)NC(=O)[C@H](C(C)C)NC(=O)[C@H](CC2CCCCC2)NC(=O)[C@H](CCN)NC(=O)[C@@H](CC(C)C)NC(=O)[C@H](CCCN)NC1=O [Compound 1564] ({CH2CO}-[Dap][4Pal]D[Phe(3-CF3)]V[Bip]I[Orn][dL][Dab][Cha]VTCA-NH2; thioether N-14) — 3.4-fold higher, 36.1 nM
